According to ChEMBL document CHEMBL1130631, “Synthesis of benzo[c]quinolizin-3-ones: selective non-steroidal inhibitors of steroid 5 alpha-reductase 1” (Bioorg Med Chem Lett, 1998):

What was measured:
[1] = biological target: T1, 3-oxo-5-alpha-steroid 4-dehydrogenase 2 (Homo sapiens, UniProt P31213); assay: Compound was evaluated for the inhibition of human Steroid 5-alpha-reductase type 2 from human prostate homogenates; No inhibition; format: tissue-based, Prostate gland
T1 sequence (P31213 whole entry): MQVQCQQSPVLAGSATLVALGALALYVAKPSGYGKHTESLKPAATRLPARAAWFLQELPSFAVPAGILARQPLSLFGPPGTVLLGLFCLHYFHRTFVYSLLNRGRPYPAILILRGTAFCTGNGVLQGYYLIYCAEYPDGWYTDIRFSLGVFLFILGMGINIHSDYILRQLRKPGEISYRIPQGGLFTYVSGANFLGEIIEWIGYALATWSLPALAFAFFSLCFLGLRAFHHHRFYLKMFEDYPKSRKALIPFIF

[2] = biological target: T2, 3-oxo-5-alpha-steroid 4-dehydrogenase 1 (Homo sapiens, UniProt P18405); assay: Compound was evaluated for the inhibition of human Steroid 5-alpha-reductase type 1 from recombinant CHO cells; format: cell-based
T2 sequence (P18405 whole entry): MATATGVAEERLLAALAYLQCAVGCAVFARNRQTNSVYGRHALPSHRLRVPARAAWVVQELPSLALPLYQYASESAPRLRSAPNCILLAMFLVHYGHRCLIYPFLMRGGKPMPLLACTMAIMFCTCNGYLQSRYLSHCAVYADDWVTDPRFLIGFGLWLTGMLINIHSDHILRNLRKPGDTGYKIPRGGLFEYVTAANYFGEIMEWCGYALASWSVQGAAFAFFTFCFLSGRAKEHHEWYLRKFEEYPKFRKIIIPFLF

[3] = biological target: T1, 3-oxo-5-alpha-steroid 4-dehydrogenase 2; assay: Compound was evaluated for the inhibition of human Steroid 5-alpha-reductase type 2 receptor from human prostate homogenates; format: tissue-based, Prostate gland
[4] = biological target: T2, 3-oxo-5-alpha-steroid 4-dehydrogenase 1; assay: Compound was evaluated for the inhibition of human Steroid 5-alpha-reductase type 1
[5] = biological target: T1, 3-oxo-5-alpha-steroid 4-dehydrogenase 2; assay: Compound was evaluated for the inhibition of human Steroid 5-alpha-reductase type 2 receptor from human prostate homogenates.; format: tissue-based, Prostate gland
[6] = biological target: T1, 3-oxo-5-alpha-steroid 4-dehydrogenase 2; assay: Compound was evaluated for the inhibition of human Steroid 5-alpha-reductase type 2 from human prostate homogenates.; No inhibition; format: tissue-based, Prostate gland
[7] = biological target: T2, 3-oxo-5-alpha-steroid 4-dehydrogenase 1; assay: Compound was evaluated for the inhibition of human Steroid 5-alpha-reductase type 1
[8] = biological target: T1, 3-oxo-5-alpha-steroid 4-dehydrogenase 2; assay: Compound was evaluated for the inhibition of human Steroid 5-alpha-reductase type 2

SMILES: O=C1C=CN2c3ccccc3CCC2C1 (stereo not given)
- IC50 [1]: Not Active
- IC50 [2]: 5130 nM

SMILES: CC(C)(C)NC(=O)[C@H]1CC[C@H]2[C@@H]3CC[C@H]4NC(=O)C=C[C@]4(C)[C@H]3CC[C@]12C [FINASTERIDE]
- IC50 [3]: 1.2 nM
- IC50 [2]: 911 nM

SMILES: CC(C)(C)NC(=O)[C@@H]1CCC2C3CCC4=CC(=O)CCN4C3=CC[C@@]21C (stereo not given in full)
- IC50 [4]: 127 nM
- IC50 [5]: 122 nM

SMILES: O=C1C=C2CCc3ccccc3N2CC1
- IC50 [6]: Not Active
- IC50 [2]: 298 nM

SMILES: CN1C(=O)CC[C@]2(C)c3ccc(Cl)cc3CCC12 (stereo not given in full)
- Ki [7]: 9 nM
- Ki [8]: > 1000 nM
